From US20200264191A1, “METHODS AND KITS FOR DIAGNOSIS OF FAMILIAL MEDITERRANEAN FEVER” (INSERM (Institut National de la Santé et de la Recherche …, priority 2017, published 2020)

Experiments:
PKC (Rat brain) = details: cited from earlier work
PI3K = details: cited from earlier work
[1] = tested on: apamin-sensitive K+ channels; details: cited from earlier work
PKC = details: cited from earlier work
PKCδ = PKCδ (Homo sapiens, UniProt Q05655); details: cell-free assays where stated; cited from earlier work
PKCζ = target: T1, PKCζ (Homo sapiens, UniProt Q05513); details: cited from earlier work
T1 sequence (Q05513 1-592): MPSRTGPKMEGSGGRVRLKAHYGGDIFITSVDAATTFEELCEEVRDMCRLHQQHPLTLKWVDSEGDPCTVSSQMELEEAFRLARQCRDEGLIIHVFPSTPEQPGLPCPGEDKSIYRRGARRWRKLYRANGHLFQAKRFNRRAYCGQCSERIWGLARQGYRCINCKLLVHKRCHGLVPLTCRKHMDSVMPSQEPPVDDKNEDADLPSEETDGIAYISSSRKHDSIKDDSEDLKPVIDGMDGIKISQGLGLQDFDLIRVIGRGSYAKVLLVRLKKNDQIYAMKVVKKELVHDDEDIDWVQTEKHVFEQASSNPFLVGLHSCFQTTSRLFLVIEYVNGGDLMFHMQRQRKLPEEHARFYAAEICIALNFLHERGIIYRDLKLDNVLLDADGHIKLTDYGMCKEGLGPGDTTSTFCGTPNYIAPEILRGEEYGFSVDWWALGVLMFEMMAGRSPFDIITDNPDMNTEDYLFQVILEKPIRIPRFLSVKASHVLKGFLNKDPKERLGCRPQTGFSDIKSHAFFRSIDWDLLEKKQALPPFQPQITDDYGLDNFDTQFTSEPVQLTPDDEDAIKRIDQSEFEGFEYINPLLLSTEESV

PKCγ = PKCγ (Homo sapiens, UniProt P05129); details: cell-free assays where stated; cited from earlier work
PKCβ = PKCβ (Homo sapiens, UniProt P05771); details: cell-free assays where stated; cited from earlier work
PKCα = PKCα (Homo sapiens, UniProt P17252); details: cell-free assays where stated; cited from earlier work
PKCμ = target: T2, PKCμ (Homo sapiens, UniProt Q15139); details: cited from earlier work
T2 sequence (Q15139 1-912): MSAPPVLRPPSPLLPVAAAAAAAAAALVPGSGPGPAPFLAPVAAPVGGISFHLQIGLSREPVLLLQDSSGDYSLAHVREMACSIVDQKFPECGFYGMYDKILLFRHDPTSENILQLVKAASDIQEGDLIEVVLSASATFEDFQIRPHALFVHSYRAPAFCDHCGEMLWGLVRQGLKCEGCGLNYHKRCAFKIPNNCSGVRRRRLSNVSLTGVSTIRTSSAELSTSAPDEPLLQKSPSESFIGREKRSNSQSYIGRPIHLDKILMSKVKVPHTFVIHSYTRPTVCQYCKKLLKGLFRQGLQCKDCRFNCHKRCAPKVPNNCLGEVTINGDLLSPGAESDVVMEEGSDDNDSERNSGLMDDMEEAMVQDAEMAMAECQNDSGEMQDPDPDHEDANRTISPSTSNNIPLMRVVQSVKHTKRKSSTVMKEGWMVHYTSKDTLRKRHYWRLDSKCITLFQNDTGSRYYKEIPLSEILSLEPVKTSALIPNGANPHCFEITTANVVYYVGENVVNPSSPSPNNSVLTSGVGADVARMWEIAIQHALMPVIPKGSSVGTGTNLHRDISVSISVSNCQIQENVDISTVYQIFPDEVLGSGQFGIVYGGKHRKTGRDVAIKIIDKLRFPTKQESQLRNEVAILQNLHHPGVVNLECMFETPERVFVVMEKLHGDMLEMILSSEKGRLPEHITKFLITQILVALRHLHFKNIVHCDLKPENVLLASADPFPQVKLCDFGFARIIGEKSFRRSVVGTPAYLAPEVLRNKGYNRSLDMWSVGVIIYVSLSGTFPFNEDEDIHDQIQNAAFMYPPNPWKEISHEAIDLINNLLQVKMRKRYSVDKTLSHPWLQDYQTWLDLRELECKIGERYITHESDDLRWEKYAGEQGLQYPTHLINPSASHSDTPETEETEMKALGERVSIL

PKCε = target: T3, PKCε (Homo sapiens, UniProt Q02156); details: cell-free assays where stated; cited from earlier work
T3 sequence (Q02156 1-737): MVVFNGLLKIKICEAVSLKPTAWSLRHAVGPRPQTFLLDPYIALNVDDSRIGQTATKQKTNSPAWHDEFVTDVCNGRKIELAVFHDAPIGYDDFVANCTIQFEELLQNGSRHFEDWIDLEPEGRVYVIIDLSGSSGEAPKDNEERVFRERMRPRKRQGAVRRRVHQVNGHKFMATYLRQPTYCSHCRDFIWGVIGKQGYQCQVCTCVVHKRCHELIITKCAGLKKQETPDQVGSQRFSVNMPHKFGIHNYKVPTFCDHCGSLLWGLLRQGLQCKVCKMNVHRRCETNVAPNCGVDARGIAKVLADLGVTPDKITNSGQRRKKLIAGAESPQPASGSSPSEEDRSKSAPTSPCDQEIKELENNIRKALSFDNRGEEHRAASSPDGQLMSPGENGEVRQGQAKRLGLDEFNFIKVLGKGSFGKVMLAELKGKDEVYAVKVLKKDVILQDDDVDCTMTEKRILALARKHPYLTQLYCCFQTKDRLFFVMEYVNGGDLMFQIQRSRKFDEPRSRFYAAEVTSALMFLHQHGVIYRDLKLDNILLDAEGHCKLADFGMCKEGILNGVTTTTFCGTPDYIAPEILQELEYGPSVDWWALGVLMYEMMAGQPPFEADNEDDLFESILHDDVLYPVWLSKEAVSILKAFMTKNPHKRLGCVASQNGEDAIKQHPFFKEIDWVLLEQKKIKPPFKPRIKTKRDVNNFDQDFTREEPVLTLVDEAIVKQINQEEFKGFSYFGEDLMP

PKN2 = PKN2 (Homo sapiens, UniProt Q16513); details: cited from earlier work
PKCβI = PKCβI (Homo sapiens, UniProt P05771); details: cell-free assays where stated; read-out: IC50 for PKCβI (PKCβ1); cited from earlier work
PKCβII = PKCβII (Homo sapiens, UniProt P05771); details: cell-free assays where stated; read-out: IC50 for PKCβII (PKCβ2); cited from earlier work
[2] = tested on: Primary monocytes from HD or FMF patients; assay: IL-1β release by primary monocytes (ELISA of supernatant); details: LPS-primed; Ro 31-8220 100 μM or ATP 2.5 mM, 1.5 h
Description: Blood was drawn in heparin-coated tubes and kept at room temperature overnight. The next day, peripheral blood mononuclear cells (PBMCs) were isolated by density-gradient centrifugation using Lymphocyte Separation Medium (Eurobio) [23]. Monocytes were isolated from PBMCs by magnetic selection using CD14 MicroBeads (Miltenyi Biotec) [24] and the AutoMACS Pro Separator (Miltenyi Biotec) following manufacturer's instructions. Monocytes were enumerated in the presence of a viability marker (propidium iodide, 10 μg/ml) by flow cytometry (BD Accuri C6 Flow Cytometer®) [25].
When indicated, monocytes were incubated for 3 hours in the presence of LPS (10 ng/ml, Invivogen). […] Following the incubation, cells were centrifuged and supernatants were collected.
Levels of IL-1β in monocyte supernatants were quantified by ELISA (R&D Systems). […] Three technical replicates per conditions were done.

PKA = details: cited from earlier work
[3] = tested on: Primary monocytes from HD or FMF patients; assay: Monocyte cell death by propidium iodide incorporation; assay type: cell-based, human; details: for difference in AUC of cell death kinetics between FMF and HD monocytes (in words): UCN-01 12.5 μM unprimed, or LPS then nigericin 5 μM
Protocol: Propidium iodide incorporation was monitored every 5 minutes from 5 minutes to 105 minutes post-UCN-01/nigericin stimulation using a fluorimeter. Cell death was calculated using TX-100-treated cells (100% cell death) and normalized cell death kinetics are presented (A, D). Each symbol corresponds to the average values of the normalized cell death of monocytes from 17 HD and […]. Mean and standard deviations are shown at each time point. […] (C-G) The time post-treatment needed to reach 20% monocytes cell death was calculated from each HD (n=17) and FMF patients (n=13) cell death kinetics. […] The bar represents the mean.
Cell death was determined by measuring propidium iodide incorporation/fluorescence at 1 h30 post stauroporin addition. […] The bar represents the mean. Cell death was normalized using TX-100-treated cells (100% cell death). With a cell death threshold set at 10% (horizontal line), this assay discriminates healthy donors from FMF patients.
Three technical replicates per conditions were done.

PKCθ = PKCθ (Homo sapiens, UniProt Q04759); details: cell-free assay; cited from earlier work
[4] = LPS 10 ng/ml 3 h, then nigericin 5 μM

Chain of PKCβI (P05771 whole entry): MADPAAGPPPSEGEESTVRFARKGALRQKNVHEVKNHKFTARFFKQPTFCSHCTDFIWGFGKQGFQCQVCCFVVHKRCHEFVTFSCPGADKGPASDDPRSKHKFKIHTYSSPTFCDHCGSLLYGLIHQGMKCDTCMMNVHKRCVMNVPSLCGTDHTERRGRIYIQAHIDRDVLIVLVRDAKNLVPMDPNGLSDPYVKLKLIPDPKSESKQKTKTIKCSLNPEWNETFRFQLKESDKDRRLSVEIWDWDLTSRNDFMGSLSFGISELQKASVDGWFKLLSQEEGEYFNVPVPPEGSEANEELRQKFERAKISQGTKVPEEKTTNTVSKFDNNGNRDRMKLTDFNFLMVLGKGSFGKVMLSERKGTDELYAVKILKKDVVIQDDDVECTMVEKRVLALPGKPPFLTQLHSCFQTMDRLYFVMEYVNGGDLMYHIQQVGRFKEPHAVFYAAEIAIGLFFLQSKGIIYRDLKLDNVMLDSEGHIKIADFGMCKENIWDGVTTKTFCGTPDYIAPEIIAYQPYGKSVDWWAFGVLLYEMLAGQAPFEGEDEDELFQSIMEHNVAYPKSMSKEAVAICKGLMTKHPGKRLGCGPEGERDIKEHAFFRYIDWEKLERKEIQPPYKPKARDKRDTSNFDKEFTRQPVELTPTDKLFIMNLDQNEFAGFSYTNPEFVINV
Chain of PKCβII (P05771 1-673 isoform P05771-2): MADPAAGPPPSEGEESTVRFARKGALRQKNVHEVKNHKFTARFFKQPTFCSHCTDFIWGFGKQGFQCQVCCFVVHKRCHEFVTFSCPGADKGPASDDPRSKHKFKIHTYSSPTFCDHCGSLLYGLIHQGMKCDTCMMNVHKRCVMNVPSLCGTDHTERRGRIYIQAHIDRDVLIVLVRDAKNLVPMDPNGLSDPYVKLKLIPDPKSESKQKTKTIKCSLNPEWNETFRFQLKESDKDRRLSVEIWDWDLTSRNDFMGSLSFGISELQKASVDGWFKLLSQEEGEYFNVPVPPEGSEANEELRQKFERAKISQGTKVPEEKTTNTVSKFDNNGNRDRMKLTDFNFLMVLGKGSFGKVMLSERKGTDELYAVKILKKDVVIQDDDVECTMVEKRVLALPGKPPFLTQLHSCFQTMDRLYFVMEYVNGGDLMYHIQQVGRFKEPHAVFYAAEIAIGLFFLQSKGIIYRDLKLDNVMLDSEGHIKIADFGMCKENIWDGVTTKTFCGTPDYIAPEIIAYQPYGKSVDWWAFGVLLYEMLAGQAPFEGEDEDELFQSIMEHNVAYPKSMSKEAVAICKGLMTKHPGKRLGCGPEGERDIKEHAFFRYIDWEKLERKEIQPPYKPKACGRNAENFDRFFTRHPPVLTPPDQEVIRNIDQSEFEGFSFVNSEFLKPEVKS
Chain of PKCβ (P05771 whole entry, species assumed): as the sequence (P05771 whole entry) above
Chain of PKCδ (Q05655 whole entry): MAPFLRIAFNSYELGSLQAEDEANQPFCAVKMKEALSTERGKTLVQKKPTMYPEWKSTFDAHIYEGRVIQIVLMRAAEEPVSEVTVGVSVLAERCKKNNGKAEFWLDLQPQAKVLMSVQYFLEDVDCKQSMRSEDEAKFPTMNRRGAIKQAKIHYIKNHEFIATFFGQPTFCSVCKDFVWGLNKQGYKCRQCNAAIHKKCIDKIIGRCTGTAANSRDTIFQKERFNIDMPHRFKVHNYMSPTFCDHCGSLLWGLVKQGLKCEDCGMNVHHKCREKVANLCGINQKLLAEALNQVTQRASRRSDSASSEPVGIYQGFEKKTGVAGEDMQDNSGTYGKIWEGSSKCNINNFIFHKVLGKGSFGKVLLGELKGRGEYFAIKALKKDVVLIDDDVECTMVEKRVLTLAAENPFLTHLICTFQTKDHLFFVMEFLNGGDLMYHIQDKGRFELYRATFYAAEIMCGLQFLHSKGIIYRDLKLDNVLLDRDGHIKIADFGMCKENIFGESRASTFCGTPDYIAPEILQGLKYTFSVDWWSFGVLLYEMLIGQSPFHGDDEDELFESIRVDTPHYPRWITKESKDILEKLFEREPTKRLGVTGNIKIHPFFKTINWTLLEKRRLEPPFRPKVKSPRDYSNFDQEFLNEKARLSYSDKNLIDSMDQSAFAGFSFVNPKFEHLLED
Chain of PKCθ (Q04759 whole entry): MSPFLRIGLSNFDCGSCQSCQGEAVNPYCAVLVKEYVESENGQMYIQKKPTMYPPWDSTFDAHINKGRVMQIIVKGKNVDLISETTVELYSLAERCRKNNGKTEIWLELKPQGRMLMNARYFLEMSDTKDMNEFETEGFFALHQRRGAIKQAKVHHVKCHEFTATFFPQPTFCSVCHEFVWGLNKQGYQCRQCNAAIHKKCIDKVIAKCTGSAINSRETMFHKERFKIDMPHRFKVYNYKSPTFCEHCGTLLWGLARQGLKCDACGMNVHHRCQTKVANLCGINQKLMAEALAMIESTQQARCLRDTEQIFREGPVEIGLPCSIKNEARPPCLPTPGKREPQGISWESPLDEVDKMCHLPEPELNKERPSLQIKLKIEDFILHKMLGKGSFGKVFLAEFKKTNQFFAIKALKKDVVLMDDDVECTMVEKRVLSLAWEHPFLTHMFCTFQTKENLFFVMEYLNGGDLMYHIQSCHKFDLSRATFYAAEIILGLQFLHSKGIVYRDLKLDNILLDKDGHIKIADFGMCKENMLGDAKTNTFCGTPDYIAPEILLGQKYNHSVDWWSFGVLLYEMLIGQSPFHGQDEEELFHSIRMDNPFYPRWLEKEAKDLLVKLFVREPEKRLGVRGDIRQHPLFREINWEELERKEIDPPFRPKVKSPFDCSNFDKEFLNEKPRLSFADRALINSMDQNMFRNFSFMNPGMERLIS

Structure (SMILES): Cn1c2ccccc2c2c3c(c4c5ccccc5n(CCC#N)c4c21)CNC3=O [Go6976]
- IC50 (PKC (Rat brain)): 7.9 nM

Structure (SMILES): O=c1c(O)c(-c2ccc(O)c(O)c2)oc2cc(O)cc(O)c12 [Quercetin]
- IC50 (PI3K): 2400 to 5400 nM

Structure (SMILES): Cc1cc(N)c2ccccc2[n+]1CCCCCCCCCC[n+]1c(C)cc(N)c2ccccc21 [Dequalinium Chloride]
- IC50 [1]: 1100 nM
- IC50 (PKC): 7000 to 18000 nM

Structure (SMILES): COc1ccc2c(c1)c(C1=C(c3c[nH]c4ccccc34)C(=O)NC1=O)cn2CCCN(C)C [Go 6983]
- IC50 (PKCδ): 10 nM
- activity on PKCζ (in words) (PKCζ): less potent
- IC50 (PKCγ): 6 nM
- IC50 (PKCβ): 7 nM
- IC50 (PKCα): 7 nM
- activity on PKCμ (in words) (PKCμ): inactive

Structure (SMILES): CS(=O)(=O)O.Cn1cc(C2=C(c3cn(CCCSC(=N)N)c4ccccc34)C(=O)NC2=O)c2ccccc21 [Ro 31-8220 Mesylate]
- IC50 (PKCε): 24 nM
- efficacy to inhibit PKN2 (in words) (PKN2): low efficacy
- IC50 (PKCγ): 27 nM
- IC50 (PKCβI): 24 nM
- IC50 (PKCβII): 14 nM
- difference in IL-1β release between FMF and HD monocytes (in words) [2]: same trends
- IC50 (PKCα): 5 nM

Structure (SMILES): O=c1ccc2ccc(O)c(O)c2o1 [Daphnetin]
- IC50 (PKA): 9330 nM
- IC50 (PKC): 25000 nM

Structure (SMILES): CN(C)CCCn1cc(C2=C(c3c[nH]c4ccccc34)C(=O)NC2=O)c2ccccc21 [Bisindolylmaleimide I]
- IC50 (PKCγ): 20 nM
- IC50 (PKCβI): 17 nM
- IC50 (PKCβII): 16 nM
- selectivity for PKC as compared to EGFR, PDGFR and insulin receptor (PKC): more than 3000 fold
- IC50 (PKCα): 20 nM

Structure (SMILES): CO[C@@H]1C[C@@H](C[C@H]2CC[C@H](C)[C@H]([C@@H](C)C(=O)O)O2)O[C@]2(O[C@](C)([C@H]3CC[C@@](C)([C@@H]4O[C@@H]([C@H]5O[C@@](O)(CO)[C@H](C)C[C@@H]5C)C[C@@H]4C)O3)C[C@H]2C)[C@@H]1C [nigericin]
- time to reach 20% cell death, FMF patients' monocytes [3, 4]: 74 min
- time to reach 20% cell death, monocytes from healthy controls [3, 4]: 72 min
- difference in AUC of cell death kinetics between FMF and HD monocytes (in words) [3]: did not demonstrate any statistical difference

Structure (SMILES): Nc1ncnc2c1ncn2[C@@H]1O[C@H](COP(=O)(O)OP(=O)(O)OP(=O)(O)O)[C@@H](O)[C@H]1O [ATP]
- difference in IL-1β release between FMF and HD monocytes (in words) [2]: did not observe any difference

Structure (SMILES): CN1CCN(c2nc(C3=C(c4c[nH]c5ccccc45)C(=O)NC3=O)c3ccccc3n2)CC1 [Sotrastaurin]
- Ki (PKCθ): 0.22 nM
- activity on PKCζ (in words) (PKCζ): inactive

Structure (SMILES): CN[C@@H]1C[C@H]2O[C@@](C)([C@@H]1OC)n1c3ccccc3c3c4c(c5c6ccccc6n2c5c31)C(=O)N[C@H]4O [UCN-01, 7-hydroxystaurosporine]
- IC50 (PKCε): 530 nM
- difference in AUC of cell death kinetics between FMF and HD monocytes (in words) [3]: statistical difference
- time to reach 20% cell death, FMF patients' monocytes ([3]; UCN-01 12.5 μM, no priming): less than 50 minutes
